Source: PubChem BioAssay AID248 (DTP/NCI, 2004)
Several values for one entry are separate records, joined by “and”; a condition that tells them apart may be missing. Equal entries are not always repeated. Inconclusive results and toxic doses are left out. Cut-off read from the data, not from the text of the source: active = T/C of 150% or more; inactive = T/C below 125%.

Tested on: L1210 leukemia ip in BDF1 mice, survival T/C
Assay: NCI In Vivo Anticancer Drug Screen. Data for tumor model L1210 Leukemia (intraperitoneal) in B6D2F1 (BDF1) mice
Settings: endpoint: mean survival time, higher = longer survival
In short: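 In this screen, tumor-bearing mice given compound are compared to those given vehicle, and their survival values are reported as a treated-to-control quotient.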

[1] = dose: 100.0 mg/kg/injection, schedule: Q01DX009 (ip), vehicle: saline with Tween-80
[2] = dose: 100.0 mg/kg/injection, schedule: Q04DX003 (ip), vehicle: Klucel (hydroxypropylcellulose) (HPC)
[3] = dose: 200.0 mg/kg/injection, schedule: Q04DX003 (ip), vehicle: Klucel (hydroxypropylcellulose) (HPC)
[4] = dose: 400.0 mg/kg/injection, schedule: Q04DX003 (ip), vehicle: Klucel (hydroxypropylcellulose) (HPC)

Measured: T/C

C=C(Cl)CSCCCS
inactive: dose: 100.0 mg/kg/injection, schedule: Q01DX009 (ip), vehicle: acetone 108 % of control | dose: 130.0 mg/kg/injection, schedule: Q01DX009 (ip), vehicle: saline 116 % of control | dose: 200.0 mg/kg/injection, schedule: Q01DX009 (ip), vehicle: acetone 123 % of control | dose: 200.0 mg/kg/injection, schedule: Q01DX009 (ip), vehicle: saline 120 % of control | dose: 300.0 mg/kg/injection, schedule: Q01DX009 (ip), vehicle: saline 120 % of control

CCNC(=S)Nc1ccc(Cl)cc1
inactive: dose: 25.0 mg/kg/injection, schedule: Q01DX009 (ip), vehicle: saline with Tween-80 93 % of control | dose: 50.0 mg/kg/injection, schedule: Q01DX009 (ip), vehicle: saline with Tween-80 95 % of control | [1] 97 % of control | dose: 100.0 mg/kg/injection, schedule: Q04DX003 (ip), vehicle: saline with Tween-80 104 % of control

CCCCCCCCCCCCCCCC[n+]1ccccc1
inactive: dose: 0.12 mg/kg/injection, schedule: Q01DX Z (ip), vehicle: water 101 % of control | dose: 0.25 mg/kg/injection, schedule: Q01DX Z (ip), vehicle: water 101 % of control | dose: 0.5 mg/kg/injection, schedule: Q01DX Z (ip), vehicle: water 108 % of control | dose: 1.0 mg/kg/injection, schedule: Q01DX Z (ip), vehicle: water 103 % of control

Cc1ccc(C)c(NC(=O)Oc2cc(C)c(Cl)cc2C(C)C)c1
inactive: dose: 100.0 mg/kg/injection, schedule: Q01DX009 (ip), vehicle: Klucel (hydroxypropylcellulose) (HPC) 92 % of control and 102 % of control | [2] 103 % of control | dose: 200.0 mg/kg/injection, schedule: Q01DX009 (ip), vehicle: Klucel (hydroxypropylcellulose) (HPC) 100 % of control and 87 % of control | [3] 115 % of control | dose: 400.0 mg/kg/injection, schedule: Q01DX009 (ip), vehicle: Klucel (hydroxypropylcellulose) (HPC) 102 % of control and 90 % of control | [4] 97 % of control

C/C=C1\CN(C(=O)C(NC(=O)C(N)C(O)C(O)COC(N)=O)C2OC(n3cc(C(=O)O)c(=O)[nH]c3=O)C(O)C2O)C1C(=O)O (stereo not drawn) (tested in a mixture with another compound)
inactive: dose: 100.0 mg/kg/injection, schedule: Q01DX001 (ip), vehicle: saline 109 % of control | dose: 200.0 mg/kg/injection, schedule: Q01DX001 (ip), vehicle: saline 103 % of control | dose: 400.0 mg/kg/injection, schedule: Q01DX001 (ip), vehicle: saline 97 % of control

CCCC(O)C(C)[N+](=O)[O-] (stereo not drawn)
inactive: dose: 100.0 mg/kg/injection, schedule: Q04DX003 (ip), vehicle: saline 96 % of control | dose: 200.0 mg/kg/injection, schedule: Q04DX003 (ip), vehicle: saline 102 % of control | dose: 400.0 mg/kg/injection, schedule: Q04DX003 (ip), vehicle: saline 96 % of control

O=C1c2ccccc2CCC1(Br)C(Br)c1ccccc1 (stereo not drawn)
inactive: dose: 100.0 mg/kg/injection, schedule: Q04DX003 (ip), vehicle: acetone 96 % of control | dose: 200.0 mg/kg/injection, schedule: Q04DX003 (ip), vehicle: acetone 101 % of control | dose: 400.0 mg/kg/injection, schedule: Q04DX003 (ip), vehicle: acetone 92 % of control

Oc1[nH]c2ccccc2c1N=NC(=S)Nc1ccccc1
inactive: dose: 75.0 mg/kg/injection, schedule: Q01DX001 (ip), vehicle: saline 91 % of control | dose: 150.0 mg/kg/injection, schedule: Q01DX001 (ip), vehicle: saline 87 % of control

c1ccc2c(c1)ccc1oc3ccc4ccccc4c3c12
inactive: dose: 18.75 mg/kg/injection, schedule: Q04DX003 (ip), vehicle: Klucel (hydroxypropylcellulose) (HPC) 97 % of control | dose: 37.5 mg/kg/injection, schedule: Q04DX003 (ip), vehicle: Klucel (hydroxypropylcellulose) (HPC) 97 % of control and 98 % of control | dose: 75.0 mg/kg/injection, schedule: Q04DX003 (ip), vehicle: Klucel (hydroxypropylcellulose) (HPC) 101 % of control and 103 % of control | [2] 103 % of control | dose: 150.0 mg/kg/injection, schedule: Q04DX003 (ip), vehicle: Klucel (hydroxypropylcellulose) (HPC) 104 % of control | [3] 97 % of control | [4] 101 % of control

CC1CC(=O)c2cccc(Cl)c2N1C (stereo not drawn)
inactive: [2] 100 % of control | [3] 100 % of control | [4] 98 % of control

COC(=O)[C@@H]1C2C=CC(C2)[C@@H]1C(=O)OC
inactive: [1] 101 % of control | dose: 200.0 mg/kg/injection, schedule: Q01DX009 (ip), vehicle: saline with Tween-80 104 % of control | dose: 400.0 mg/kg/injection, schedule: Q01DX009 (ip), vehicle: saline with Tween-80 104 % of control
